US20090010902A1 (priority 2007, published 2009)

Legend:
[1] = test system: TLR4 protein; conditions: summary statement; no method described
[2] = test system: TLR4 mRNA in human intestinal tract epithelial cell strain HT-29; type: cell-based

## CCCC(=O)O [butyric acid]
[1]
  expression amount of TLR4 protein (result in words): reduced
[2]
  TLR4 mRNA expression (result in words): similarly reduced
